Results on nine compounds are retold here after US20090047224A1, “Cosmetic Process for Preventing or Treating the Signs of Skin Ageing or the Orange-Peel Appearance” (L'OREAL, priority 2003, published 2009).

Structures are written as SMILES. Like-named read-outs stand apart in the source and are kept apart here.

The test system of data set [1] is bovine serum albumin. Briefly: Anti-glycation effect: inhibition of glycation of bovine serum albumin by D-ribose, measured by fluorescence. In kind it is biochemical. The conditions noted are these: for IC50: BSA + D-ribose 100 mM, 37° C., four weeks; for anti-glycation activity: compared with aminoguanidine. How it is done:
A solution of bovine serum albumin at 5 or 10 mg/ml dissolved in phosphate-buffered saline is incubated at 37° C. for four weeks in the presence or absence of the test compounds at a concentration of between 20 and 160 μg/ml, and in the presence or absence of D-ribose at 100 mM.
After this incubation, dialysis of each sample is performed for 24 hours against MilliQ water.
The glycation of the BSA is evaluated by measuring the fluorescence of each sample at λex 320/λex 380 nm (which corresponds to the formation of the pentosidine glycation product) and at λex 370/λex 440 nm (which corresponds to AGEs).
The inhibition of glycation corresponds to a decrease in fluorescence compared with the glycated control (treated with sugar). The concentration of compound leading to a 50% inhibition of glycation, or IC50, is determined.
Aminoguanidine is used as positive control and tested at various concentrations of between 20 and 160 μg/ml.

Data set [2] in a line: Release of ammonia on heating. It is filed as physicochemical. The following applies: in contrast with aminoguanidine.
Data set [3] relates to supercoiled circular DNA (plasmid pBR322). Description: Antioxidant effect: DNA-protecting effect under simulated daily UV with ferric ions and riboflavin. In kind it is biochemical. The conditions noted are these: 30 minutes simulated daily UV. As for the experimental part:
The DNA-protecting effect of the compounds according to the invention was evaluated by comparison with vitamin C and N-acetylcysteine, which are two well-known antioxidants.
In this test, supercoiled circular DNA (plasmid pBR322, Roche) is placed in solution in the presence of 10 mM phosphate buffer (pH=7) and ferric ions (FeCl3, Sigma) at a concentration of 1 μM and in the presence of riboflavin (Sigma) at a concentration of 0.5 μM. The iron amplifies, via the Fenton reaction, the photo-oxidative impact on the DNA. Its presence also makes it possible to evaluate the potential chelating effect of the N-hydroxy imides according to the invention.
The samples are exposed for 30 minutes to simulated daily UV (attenuated UVB+total UVA) obtained using the Oriel solar simulator equipped with a suitable optical filter and a dichroic mirror. The corresponding spectrum is illustrated in FIG. 3.
The DNA is then subjected to electrophoresis on 1% agarose gel to separate the supercoiled forms, relaxed due to induction of breaks and linearized. After treatment in a gel with the fluorescent intercalating agent ethidium bromide, these three forms may be quantified by densitometry of the agarose gel under UV.

Where [4] appears, read: fluorescence corresponding to AGEs, read-out: λex 370/λex 440 nm IC50.
Where [5] appears, read: fluorescence corresponding to formation of the pentosidine glycation product, read-out: λex 320/λex 380 nm IC50.

With `N=C(N)NN` [Aminoguanidine, reference compound], the IC50 in data set [1] (setting [4]) was 700 µM; in data set [1] (setting [5]) it was 200 µM.
As for `O=C1CCC(=O)N1O` [Compound 1, N-hydroxysuccinimide], the anti-glycation activity entry in data set [1] is “more moderate than aminoguanidine”. For the same compound, the “releasing ammonia on heating” value in data set [2] is “not releasing ammonia on heating”.
Turning to `O=C1C=CC(=O)N1O` [Compound 2, N-hydroxymaleimide], the IC50 came out at 600 µM in data set [1] (setting [4]) and 800 µM in data set [1] (setting [5]).
Turning to `O=C1C=C(c2ccccc2)C(=O)N1O` [Compound 3, N-hydroxy-2-phenylmaleimide], the “Score (level of DNA protection)” value in data set [3] (Concentration 0.1 mM) is listed as “++ (The score (++) means that the active agent reduces the photodegradation of the DNA by at least 50%)”. The IC50 worked out at 40 µM in data set [1] (setting [4]) and 30 µM in data set [1] (setting [5]).
Turning to `O=C1c2ccccc2C(=O)N1O` [Compound 4, N-hydroxyphthalimide], the IC50 in data set [1] (setting [4]) came to 250 µM; in data set [1] (setting [5]) it was 200 µM.
For the compound `O=C1c2cccc3cccc(c23)C(=O)N1O` [Compound 5, N,N-(1,8-naphthaloyl)hydroxylamine], the “Score (level of DNA protection)” value in data set [3] (Concentration 0.01 mM) is “+ (The score (+) means that the active agent reduces the photodegradation of the DNA by at least 20%)”. In addition, the IC50 in data set [1] (setting [4]) worked out at 45 µM; in data set [1] (setting [5]) it was 0.8 µM.
Take `O=C1CCCC(=O)N1O` [Compound 6, N-hydroxy-piperidine-2,6-dione]: the anti-glycation activity result in data set [1] is given as “more moderate than aminoguanidine”.
In the case of `CC(=O)N[C@@H](CS)C(=O)O` [N-Acetylcysteine, reference compound], the “Score (level of DNA protection)” value in data set [3] (Concentration 1 mM) is “++ (The score (++) means that the active agent reduces the photodegradation of the DNA by at least 50%)”.
Still for that read-out and setting: next, `O=C1O[C@H]([C@@H](O)CO)C(O)=C1O` [Vitamin C, reference compound]: “+ (The score (+) means that the active agent reduces the photodegradation of the DNA by at least 20%)”.
